Measurements published in patent US10137079B2, “Transdermal composition for treating pain” (priority 2014, dated 2018).

Experiments:
skin [1] = conditions: in vivo
Text: Menthol can optionally be added to overcome the burning sensation caused by the capsaicin. […] 13, 2012 has reported that skin can burn with menthol concentrations above 3% (http://www.fda.gov/Drugs/DrugSafety/ucm318858.htm). Thus, in one embodiment, the concentration of menthol in the ethosome compositions is less than about 3% by weight. In another embodiment, the concentration of menthol in the ethosome compositions is about 2% by weight.

skin [2] = conditions: FDA Safety Announcement Sep. 13, 2012; cited from earlier work

Structure (SMILES): CC1CCC(C(C)C)C(O)C1 (centres unmarked) [Menthol]
- burning sensation (skin [1]): can cause a burning sensation on its own
- menthol concentrations at which skin can burn (skin [2]): above 3%
